Test results from patent US9415034B2, “Inhibitors and enhancers of uridine diphosphate-glucuronosyltransferase 2B (UGT2B)” (NATIONAL DEFENSE MEDICAL CENTER, priority 2005, dated 2016).

Tested on: UGT2B
Assay: in vitro
Protocol: In the following experiment, 27 different kinds of CHEs and 10 different excipients were used as UGT2B inhibitor in this invention. These CHEs are pure compounds available commercially, and were purchased from Sigma Chemical Co., Nacalai Tesque (Kyoto, Japan) and Indofine Chemical Co., Inc. (Somerville, N.J.). These UGT2B inhibitors are dissolved in alcohol at the concentration of 1, 10, 100 μM for the following experiment.
These excipients are dissolved in water and make up to 0.5%, 5%, 50% (wt %, w/v) for the following experiment. (Note: BRIJ is a registered trademark of ICI Americas, Inc.; Pluronic is a registered trademark of BASF Corporation.)
The Sprague-Dawley male rats, weighted 300-400 g are used as model animals in these experiments. The microsome is prepared as follows: • i. Sacrifice a rat after 12-16 hours fasting, take its liver; wipe dry the liver and weigh it. • ii. Add 300% (by volume) of cold 0.3M sucrose solution, and homogenize the liver. • iii. Centrifuge the homogenized liver suspension at 9000×g speed (KS-800, Kubota, made in Japan) for 10 min at 4° C. Collect the supernatant. • iv. Centrifuge the supernatant at 105,000×g speed (L8-60M, Beckman, made in USA) for 60 min at 4° C. • v. Remove the supernatant, add 0.3M sucrose (of the same volume) and repeat the homogenization. The homogenized liver suspension is the microsome. Store the microsome at −70° C.
Thaw the microsome before use. Add 5 μl/ml BRIJ®35 (Fisher et al. 2000, Drug Metabolism & Disposition. 28(5):560-6) into microsome by a ratio of microsome:BRIJ®35=8:1 (v/v).
The protein amount is determined as follows: • i. Take 0.1 ml microsome and dilute to 5 ml 0.85% NaCl (50-fold dilution, v/v). Take 0.2 ml of the diluted microsome and place it in a capped test tube (triple experiments). Separately, replacing microsome with 0.2 ml NaCl as the control. • ii. Add 2.2 ml Biuret regent (SIGMA, 690-A) into each test tube, mix well and store at room temperature for 10 min. • iii. Add 0.1 ml folin regent (SIGMA, 690-A), mix immediately, and store at room temperature for 30 min. Measure the absorbance at 550 nm wave length within the 30 min. Measure the concentration of protein in microsome based on the standard curve generated by various bovine albumin concentration and absorbance. 4. The Measurement of the Inhibition of UGT2B Activity in vitro • i. […] Mix solution (A) and 17 μl solution (B) thoroughly, place in a 37° C. water bath and shake at 125 rpm for 60 min. • iii. Add 1 ml ACN to interrupt the reaction. • iv. Centrifuge at 130,000×g speed at 4° C. for 5 min, and • v. […] 5.
Set the Ultra-violet detector's (SPD-10A, Shimadzu, Kyoto, made in Japan) wave length to 210 nm.
Those CHEs are commercially available pure compounds, acquired from Sigma Chemical Co., Nacalai Tesque (Kyoto, Japan) and […] (Somerville, N.J.). Their categories, names, sources, and chemical compositions are described in Table 5.

[1] = male, Sprague-Dawley, rat, % Inhibition (Mean ± SD)
[2] = male, Sprague-Dawley, rat, 60 min, 8.5 μM
[3] = male, Sprague-Dawley, rat, 60 min, 85 μM
[4] = male, Sprague-Dawley, rat, 60 min, 850 μM
[5] = male, Sprague-Dawley, rat, inhibition rate on the metabolism of nalbuphine in microsome
[6] = Table 2, inhibitor 8.5 μM, metabolism of nalbuphine in rat liver microsome
[7] = Table 2, inhibitor 85 μM, metabolism of nalbuphine in rat liver microsome
[8] = Table 2, inhibitor 850 μM, metabolism of nalbuphine in rat liver microsome
[9] = Table 6, enhancer 8.5 μM, negative = enhancement
[10] = Table 6, enhancer 85 μM, negative = enhancement
[11] = Table 6, enhancer 850 μM, negative = enhancement

Row | SMILES | inhibition at 60 min, 8.5 μM [1] | inhibition at 60 min, 85 μM [1] | inhibition at 60 min, 850 μM [1] | inhibition at 60 min, 8.5 µM [1] | inhibition at 60 min, 85 µM [1] | inhibition at 60 min, 850 µM [1] | further results
1 | Oc1cc(O)c2c(c1)OC(c1ccc(O)c(O)c1)[C@@H](O)C2 (single isomer, unassigned; (+)) [(+)-catechin, (+)-Catechin] | -68.4 ± 7.34% | -54.8 ± 9.38% | -65.3 ± 47% |  |  |  | 
2 | Oc1cc(O)c2c(c1)OC(c1ccc(O)c(O)c1)[C@@H](O)C2 (single isomer, unassigned; (+)) [(+)-epicatechin, (+)-Epicatechin] |  |  |  |  |  |  | % Inhibition (Mean ± SD) [2]: −32.553 ± 1.578%; % Inhibition (Mean ± SD) [3]: −47.075 ± 0.533%; % Inhibition (Mean ± SD) [4]: −8.118 ± 1.256%
3 | C=C(C)C1CC=C(C)CC1 (single isomer, unassigned; (+)) [(+)-limonene, (+)-Limonene] |  |  |  | 18.3 ± 0.793% | 45.3 ± 7.84% | 44.2 ± 2.28% | inhibition at 60 min [5]: ≥ 30%
4 | Oc1cc(O)c2c(c1)OC(c1ccc(O)c(O)c1)[C@@H](O)C2 (single isomer, unassigned; (-)) [(−)-epicatechin, (−)-Epicatechin] |  |  |  |  |  |  | % Inhibition (Mean ± SD) [2]: −28.68 ± 17.634%; % Inhibition (Mean ± SD) [3]: −23.53 ± 27.304%; % Inhibition (Mean ± SD) [4]: −48.35 ± 39.354%
5 | CC(=O)OCCCc1ccccc1 [3-phenylpropyl acetate, 3-Phenylpropyl Acetate] | -26.3 ± 27.3% | 17.3 ± 5.84% | 2.39 ± 22.5% | -26.3 ± 27.3% | 17.3 ± 5.84% | 2.39 ± 22.5% | 
6 | O=c1cc(-c2ccc(O)cc2)oc2cc(O)cc(O)c12 [apigenin, Apigenin] | -26.7 ± 13.1% | 54 ± 15.8% | -16.1 ± 17.9% | -26.7 ± 13.1% | 54 ± 15.8% | -16.1 ± 17.9% | 
7 | O=c1cc(-c2ccccc2)oc2cc(O)c(O)c(O)c12 [baicalein] | -99.6 ± 12.8% | -125 ± 8.62% |  |  |  |  | inhibition at 60 min, 212.5 μM [1]: -146 ± 8.47%
8 | O=C(O)[C@H]1O[C@@H](Oc2cc3oc(-c4ccccc4)cc(=O)c3c(O)c2O)[C@H](O)[C@@H](O)[C@@H]1O [baicalin] |  |  |  |  |  |  | % Inhibition (Mean ± SD) [6]: 36.298 ± 9.403%; % Inhibition (Mean ± SD) [7]: 46.253 ± 22.923%; % Inhibition (Mean ± SD) [8]: 44.262 ± 2.879%
9 | COc1c(O)cc2oc(Oc3ccc(O)cc3)cc(=O)c2c1O [capillarisin, Capillarisin] |  |  |  | 111 ± 21.8% | 105 ± 21.8% | 105 ± 19.3% | inhibition at 60 min [5]: 111%
10 | CC12CCC(CC1)C(C)(C)O2 [cineole, Cineole] | -8.41 ± 18.6% | -12.1 ± 6.68% | 58.9 ± 8.56% | -8.41 ± 18.6% | -12.1 ± 6.68% | 58.9 ± 8.56% | 
11 | O=c1c(-c2ccc(O)cc2)coc2cc(O)ccc12 [daidzein, Daidzein] | -128 ± 20.8% | -138 ± 4.62% |  |  |  |  | inhibition at 60 min, 425 μM [1]: -138 ± 2.31%
12 | O=c1c(-c2ccc(O)cc2)coc2cc(O[C@@H]3O[C@H](CO)[C@@H](O)[C@H](O)[C@H]3O)ccc12 [daidzin, Daidzin] |  |  |  |  |  |  | inhibition at 60 min, 8.5 μM (male, Sprague-Dawley, rat): -29.5 ± 22%; inhibition at 60 min, 85 μM (male, Sprague-Dawley, rat): -41.5 ± 17%; inhibition at 60 min, 850 μM (male, Sprague-Dawley, rat): -61 ± 21.1%
13 | CC(C)[C@@H](C)/C=C/[C@@H](C)[C@H]1CC[C@H]2C3=CC=C4C[C@@H](O)CC[C@]4(C)[C@H]3CC[C@]12C [ergosterol, Ergosterol] |  |  |  |  |  |  | inhibition at 60 min, 8.5 μM (male, Sprague-Dawley, rat, liver microsomes, probe nalbuphine, % Inhibition (Mean ± SD), Table 6, enhancer 8.5 μM, negative = enhancement): -12.5 ± 28.9%; inhibition at 60 min, 85 μM (male, Sprague-Dawley, rat, liver microsomes, probe nalbuphine, % Inhibition (Mean ± SD), Table 6, enhancer 85 μM, negative = enhancement): -28.3 ± 20.3%; inhibition at 60 min, 850 μM (male, Sprague-Dawley, rat, liver microsomes, probe nalbuphine, % Inhibition (Mean ± SD), Table 6, enhancer 850 μM, negative = enhancement): -34.6 ± 19.9%
14 | O=C1CC(c2ccc(O)c(O)c2)Oc2cc(O)cc(O)c21 (centres unmarked) [eriodictyol, Eriodictyol] | -1.06 ± 3.71% | -17.1 ± 2.3% | 14.1 ± 2.88% | -1.06 ± 3.71% | -17.1 ± 2.3% | 14.1 ± 2.88% | inhibition at 60 min [5]: ≥ 30%
15 | CCCCCCCCCCCCCC(=O)OCC [ethyl myristate, Ethyl Myristate] | -27.8 ± 14.7% | -12.1 ± 5.71% | 6.33 ± 1.48% | -27.8 ± 14.7% | -12.1 ± 5.71% | 6.33 ± 1.48% | 
16 | COc1ccc(-c2coc3cc(O)ccc3c2=O)cc1 [formononetin, Formononetin] | -86.5 ± 3.49% | -31.5 ± 4.78% | -24.7 ± 4.42% |  |  |  | 
17 | O=C(O)c1cc(O)c(O)c(O)c1 [gallic acid, Gallic Acid] |  |  |  | 15.8 ± 4.42% | 8.05 ± 3.02% | 12.2 ± 4.08% | 
18 | O=c1c(-c2ccc(O)cc2)coc2cc(O)cc(O)c12 [genistein, Genistein] |  |  |  |  |  |  | inhibition at 60 min, 8.5 µM (male, Sprague-Dawley, rat): 15.6 ± 6.05%; inhibition at 60 min, 8.5 μM (male, Sprague-Dawley, rat): 15.6 ± 6.05%; inhibition at 60 min, 85 µM (male, Sprague-Dawley, rat): 5.73 ± 6.41%; inhibition at 60 min, 85 μM (male, Sprague-Dawley, rat): 5.73 ± 6.41%; inhibition at 60 min, 850 µM (male, Sprague-Dawley, rat): -9.2 ± 5.18%; inhibition at 60 min, 850 μM (male, Sprague-Dawley, rat): -9.2 ± 5.18%
19 | COc1cc(O)c2c(=O)cc(-c3ccc(O)cc3)oc2c1 [genkwanin] | -27 ± 4.51% | -77.7 ± 20.7% | -43.2 ± 18.8% |  |  |  | 
20 | CC1(C)[C@@H](O[C@H]2O[C@H](C(=O)O)[C@@H](O)[C@H](O)[C@H]2O[C@@H]2O[C@H](C(=O)O)[C@@H](O)[C@H](O)[C@H]2O)CC[C@]2(C)[C@H]3C(=O)C=C4[C@@H]5C[C@@](C)(C(=O)O)CC[C@]5(C)CC[C@@]4(C)[C@]3(C)CC[C@@H]12 [glycyrrhizin, Glycyrrhizin] | 9.93 ± 6.66% | -20.3 ± 3.67% | -5.65 ± 6.62% | 9.93 ± 6.66% | -20.3 ± 3.67% | -5.65 ± 6.62% | 
21 | COc1ccc(C2CC(=O)c3c(O)cc(O)cc3O2)cc1O (centres unmarked) [hesperetin, Hesperetin] | 51.7 ± 21.7% | -59.1 ± 18.9% | -124 ± 49.4% | 51.7 ± 21.7% | -59.1 ± 18.9% | -124 ± 49.4% | inhibition at 60 min [5]: ≥ 30%
22 | COc1ccc([C@@H]2CC(=O)c3c(O)cc(O[C@@H]4O[C@H](CO[C@@H]5O[C@@H](C)[C@H](O)[C@@H](O)[C@H]5O)[C@@H](O)[C@H](O)[C@H]4O)cc3O2)cc1O [hesperidin, Hesperidin] | 2.16 ± 2.73% | -32 ± 10.3% | -42 ± 4.25% |  |  |  | 
23 | O=c1cc(-c2ccc(O)c(O)c2)oc2cc(O)c([C@@H]3O[C@H](CO)[C@@H](O)[C@H](O)[C@H]3O)c(O)c12 [homoorientin, Homoorientin] |  |  |  |  |  |  | % Inhibition (Mean ± SD) [9]: −128.53 ± 27.613%; % Inhibition (Mean ± SD) [10]: −127.21 ± 28.005%; % Inhibition (Mean ± SD) [11]: −133.17 ± 26.968%
24 | O=c1c(O[C@@H]2O[C@H](CO)[C@@H](O)[C@H](O)[C@H]2O)c(-c2ccc(O)c(O)c2)oc2cc(O)cc(O)c12 [isoquercitrin, Isoquercitrin] |  |  |  |  |  |  | % Inhibition (Mean ± SD) [9]: −8.089 ± 2.404%; % Inhibition (Mean ± SD) [10]: −19.119 ± 21.887%; % Inhibition (Mean ± SD) [11]: −71.696 ± 20.468%
25 | COc1cc(-c2oc3cc(O)cc(O)c3c(=O)c2O)ccc1O [isorhamnetin, Isorhamnetin] |  |  |  |  |  |  | inhibition at 60 min (male, Sprague-Dawley, rat): ≥ 30%; inhibition at 60 min, 8.5 µM (male, Sprague-Dawley, rat): 88.4 ± 11.6%; inhibition at 60 min, 85 µM (male, Sprague-Dawley, rat): 85.1 ± 14.7%; inhibition at 60 min, 850 µM (male, Sprague-Dawley, rat): 107 ± 8.1%
26 | O=c1cc(-c2ccc(O)cc2)oc2cc(O)c([C@@H]3O[C@H](CO)[C@@H](O)[C@H](O)[C@H]3O)c(O)c12 [isovitexin, Isovitexin] |  |  |  |  |  |  | % Inhibition (Mean ± SD) [6]: 29.821 ± 9.786%; % Inhibition (Mean ± SD) [7]: −5.528 ± 9.096%; % Inhibition (Mean ± SD) [8]: −12.377 ± 8.912%; % Inhibition (Mean ± SD) [9]: 29.821 ± 9.786%; % Inhibition (Mean ± SD) [10]: −5.528 ± 9.096%; % Inhibition (Mean ± SD) [11]: −12.377 ± 8.912%
